From US7915402B2, “Antioxidant inflammation modulators: oleanolic acid derivatives with saturation in the C-ring” (Reata Pharmaceuticals, Inc., priority 2008, dated 2011)
pIC50: −log10 of the molar value.

How the values were obtained:
mice = assay: 9-day toxicity study in mice; type: in vivo; details: sesame oil, p.o. daily for 9 days
Protocol: In a second experiment, six additional compound differing only in the saturation or non-saturation of the C ring were tested for toxicity in mice by daily oral administration for 9 days, using sesame oil as the vehicle.

[1] = test system: IFNγ-induced NO production in RAW264.7 macrophages; assay: Suppression of IFNγ-induced NO production (Griess reagent); type: cell-based, mouse; details: RAW264.7, 20 ng/ml IFNγ 24 h, 2 h pre-treatment
Protocol: (§1) FIGS. 1-8 and 32-34. Inhibition of NO Production. RAW264.7 macrophages were pre-treated with DMSO or drugs at various concentrations (nM) for 2 hours, then treated with 20 ng/ml IFNγ for 24 hours. NO concentration in media was determined using a Griess reagent system; cell viability was determined using WST-1 reagent.
(§2) Nitric Oxide production and cell viability. RAW264.7 macrophages were pre-treated with DMSO or drugs for 2 hours, then treated with recombinant mouse IFNγ (Sigma) for 24 hours. NO concentration in media was determined using the Griess reagent system (Promega). Cell viability was determined using WST-1 reagent (Roche).

RAW264.7 macrophages = assay: Cell viability, WST-1 reagent; type: cell-based, mouse; details: RAW264.7 (20 ng/ml IFNγ)
Protocol: as §1, §2

| pIC50 [1] | pIC50 ([1]; Mus musculus) | SMILES | Mortality (mice; 3 mg/kg) | Mortality (mice; 10 mg/kg) | Mortality (mice; 30 mg/kg) | pIC50 (RAW264.7 macrophages) | pIC50 (RAW264.7 macrophages; Mus musculus) |
| --- | --- | --- | --- | --- | --- | --- | --- |
|  |  | CONC(=O)[C@]12CCC(C)(C)C[C@H]1[C@H]1C(=O)C=C3[C@@]4(C)C=C(C#N)C(=O)C(C)(C)[C@@H]4CC[C@@]3(C)[C@]1(C)CC2 [Compound 63166, reference compound] | 0/5 | 0/5 | 0/5 |  |  |
| < 6.70 |  | COC(=O)[C@]12CCC(C)(C)C[C@H]1[C@H]1C(=O)C[C@@H]3[C@@]4(C)Cc5cnoc5C(C)(C)[C@@H]4CC[C@@]3(C)[C@]1(C)CC2 [Compound 63195] |  |  |  | < 6.70 |  |
| < 6.70 |  | CC1(C)CC[C@]2(C(=O)NCC(F)(F)F)CC[C@]3(C)[C@H](C(=O)C[C@@H]4[C@@]5(C)Cc6cnoc6C(C)(C)[C@@H]5CC[C@]43C)[C@@H]2C1 [Compound 63223] |  |  |  | < 6.70 |  |
|  | < 6.70 | CC1(C)CC[C@]2(C(=O)NCC(F)(F)F)CC[C@]3(C)[C@H](C(=O)C[C@@H]4[C@@]5(C)CC(C#N)C(=O)C(C)(C)[C@@H]5CC[C@]43C)[C@@H]2C1 (stereo partly drawn) [Compound 63227, (4aS,6aR,6bR,8aR,12aR,12bR,14aR,14bS)-11-cyano-2,2,6a,6b,9,9,12a-heptamethyl-10,14-dioxo-N-(2,2,2-trifluoroethyl)docosahydropicene-4a-carboxamide] |  |  |  |  | < 6.70 |
|  | < 6.70 | CC1(C)CC[C@]2(c3nn[nH]n3)CC[C@]3(C)[C@H](C(=O)C[C@@H]4[C@@]5(C)C=C(C#N)C(=O)C(C)(C)[C@@H]5CC[C@]43C)[C@@H]2C1 [Compound 63229, (4aR,6aR,6bR,8aS,12aS,12bR,14aR,14bR)-4,4,6a,6b,11,11,14b-heptamethyl-3,13-dioxo-8a-(2H-tetrazol-5-yl)-3,4,4a,5,6,6a,6b,7,8,8a,9,10,11,12,12a,12b,13,14,14a,14b-icosahydropicene-2-carbonitrile] |  |  |  |  | < 6.70 |
|  | ~7.30 | Cn1nnc([C@]23CCC(C)(C)C[C@H]2[C@H]2C(=O)C[C@@H]4[C@@]5(C)C=C(C#N)C(=O)C(C)(C)[C@@H]5CC[C@@]4(C)[C@]2(C)CC3)n1 [Compound 63230, (4aR,6aR,6bR,8aS,12aS,12bR,14aR,14bR)-4,4,6a,6b,11,11,14b-heptamethyl-8a-(2-methyl-2H-tetrazol-5-yl)-3,13-dioxo-3,4,4a,5,6,6a,6b,7,8,8a,9,10,11,12,12a,12b,13,14,14a,14b-icosahydropicene-2-carbonitrile] |  |  |  |  | < 6.70 |
|  | < 6.70 | COC(=O)[C@]12CCC(C)(C)C[C@H]1[C@H]1C(=O)CC3[C@@]4(C)CC(C#N)=C(O)C(C)(C)[C@@H]4CC[C@@]3(C)[C@]1(C)CC2 (stereo partly drawn) [Compound 63250, (4aS,6aR,6bR,8aR,12aR,14aR,14bS)-methyl 11-cyano-10-hydroxy-2,2,6a,6b,9,9,12a-heptamethyl-14-oxo-1,2,3,4,4a,5,6,6a,6b,7,8,8a,9,12,12a,12b,13,14,14a,14b-icosahydropicene-4a-carboxylate] |  |  |  |  | < 6.70 |
| < 6.70 |  | CC1(C)CC[C@]2(C(=O)NCC(F)(F)F)CC[C@]3(C)[C@H]([C@H](O)C[C@@H]4[C@@]5(C)C=C(C#N)C(=O)C(C)(C)[C@@H]5CC[C@]43C)[C@@H]2C1 [Compound 63268] |  |  |  | < 6.70 |  |
|  | ~7.15 | Cc1nnc([C@]23CCC(C)(C)C[C@H]2[C@H]2C(=O)C[C@@H]4[C@@]5(C)C=C(C#N)C(=O)C(C)(C)[C@@H]5CC[C@@]4(C)[C@]2(C)CC3)s1 [Compound 63274, (4aR,6aR,6bR,8aS,12aS,12bR,14aR,14bR)-4,4,6a,6b,11,11,14b-heptamethyl-8a-(5-methyl-1,3,4-thiadiazol-2-yl)-3,13-dioxo-3,4,4a,5,6,6a,6b,7,8,8a,9,10,11,12,12a,12b,13,14,14a,14b-icosahydropicene-2-carbonitrile] |  |  |  |  | < 6.70 |
|  | < 6.70 | COC(=O)[C@]12CCC(C)(C)C[C@H]1C1OC(O)C[C@@H]3[C@@]4(C)C=C(C#N)C(=O)C(C)(C)[C@@H]4CC[C@@]3(C)[C@]1(C)CC2 (stereo partly drawn) [Compound 63289, (4aR,6aR,6bS,8aS,12aR,15aR,15bR)-methyl 2-cyano-14-hydroxy-4,4,6a,6b,11,11,15b-heptamethyl-3-oxo-3,4,4a,5,6,6a,6b,7,8,8a,9,10,11,12,12a,12b,14,15,15a,15b-icosahydrodinaphtho[1,2-b:2′,1′-d]oxepine-8a-carboxylate] |  |  |  |  | < 6.70 |
|  | ~7.70 | COC(=O)[C@]12CCC(C)(C)C[C@H]1[C@H]1C(=NO)C[C@@H]3[C@@]4(C)C=C(C#N)C(=O)C(C)(C)[C@@H]4CC[C@@]3(C)[C@]1(C)CC2 [Compound 63295, (4aS,6aR,6bR,8aR,12aR,12bR,14aR,14bS)-methyl 11-cyano-14-(hydroxyimino)-2,2,6a,6b,9,9,12a-heptamethyl-10-oxo-1,2,3,4,4a,5,6,6a,6b,7,8,8a,9,10,12a,12b,13,14,14a,14b-icosahydropicene-4a-carboxylate] |  |  |  |  | < 6.70 |
|  | ~6.70 | COC(=O)[C@]12CCC(C)(C)C[C@H]1[C@H]1NC(=O)C[C@@H]3[C@@]4(C)C=C(C#N)C(=O)C(C)(C)[C@@H]4CC[C@@]3(C)[C@]1(C)CC2 [Compound 63296, (4aR,6aR,6bS,8aS,12aR,12bR,15aR,15bR)-methyl 2-cyano-4,4,6a,6b,11,11,15b-heptamethyl-3,14-dioxo-4,4a,5,6,6a,6b,7,8,8a,9,10,11,12,12a,12b,13,14,15,15a,15b-icosahydro-3H-dinaphtho[1,2-b:2′,1′-d]azepine-8a-carboxylate] |  |  |  |  | < 6.70 |
|  | ~7.60 | CC(=O)[C@]12CCC(C)(C)C[C@H]1[C@H]1C(=O)C[C@@H]3[C@@]4(C)C=C(C#N)C(=O)C(C)(C)[C@@H]4CC[C@@]3(C)[C@]1(C)CC2 [Compound 63308, (4aR,6aR,6bR,8aS,12aS,12bR,14aR,14bR)-8a-acetyl-4,4,6a,6b,11,11,14b-heptamethyl-3,13-dioxo-3,4,4a,5,6,6a,6b,7,8,8a,9,10,11,12,12a,12b,13,14,14a,14b-icosahydropicene-2-carbonitrile] |  |  |  |  | < 6.70 |
|  |  | CN(C)C(=O)[C@]12CCC(C)(C)C[C@H]1[C@H]1C(=O)C=C3[C@@]4(C)C=C(C#N)C(=O)C(C)(C)[C@@H]4CC[C@@]3(C)[C@]1(C)CC2 [Compound 63324, reference compound] | 0/5 | 0/5 | 0/5 |  |  |

| SMILES | pIC50 [1] | pIC50 ([1]; Mus musculus) | Mortality (mice; 3 mg/kg) | Mortality (mice; 10 mg/kg) | Mortality (mice; 30 mg/kg) | pIC50 (RAW264.7 macrophages) | pIC50 (RAW264.7 macrophages; Mus musculus) |
| --- | --- | --- | --- | --- | --- | --- | --- |
| CC1(C)CC[C@]2(C(=O)OCc3ccccc3)CC[C@]3(C)[C@H](C(=O)C[C@@H]4[C@@]5(C)C=C(C#N)C(=O)C(C)(C)[C@@H]5CC[C@]43C)[C@@H]2C1 [Compound 63323, (4aS,6aR,6bR,8aR,12aR,12bR,14aR,14bS)-benzyl 11-cyano-2,2,6a,6b,9,9,12a-heptamethyl-10,14-dioxo-1,2,3,4,4a,5,6,6a,6b,7,8,8a,9,10,12a,12b,13,14,14a,14b-icosahydropicene-4a-carboxylate] |  | ~7.40 | 0/5 | 0/5 | 0/5 |  |  |
| CONC(=O)[C@]12CCC(C)(C)C[C@H]1[C@H]1C(=O)C[C@@H]3[C@@]4(C)C=C(C#N)C(=O)C(C)(C)[C@@H]4CC[C@@]3(C)[C@]1(C)CC2 [Compound 63325, (4aS,6aR,6bR,8aR,12aR,12bR,14aR,14bS)-11-cyano-N-methoxy-2,2,6a,6b,9,9,12a-heptamethyl-10,14-dioxo-1,2,3,4,4a,5,6,6a,6b,7,8,8a,9,10,12a,12b,13,14,14a,14b-icosahydropicene-4a-carboxamide] |  | ~7.30 | 0/5 | 0/5 | 0/5 |  |  |
| CN(C)C(=O)[C@]12CCC(C)(C)C[C@H]1[C@H]1C(=O)C[C@@H]3[C@@]4(C)C=C(C#N)C(=O)C(C)(C)[C@@H]4CC[C@@]3(C)[C@]1(C)CC2 [Compound 63326, (4aS,6aR,6bR,8aR,12aR,12bR,14aR,14bS)-11-cyano-N,N,2,2,6a,6b,9,9,12a-nonamethyl-10,14-dioxo-1,2,3,4,4a,5,6,6a,6b,7,8,8a,9,10,12a,12b,13,14,14a,14b-icosahydropicene-4a-carboxamide] |  | ~7.30 | 0/5 | 1/5 | 0/5 |  |  |
